{"source": "PubChem BioAssay AID493102", "about": "(Broad Institute, 2011)"}
{"tested_on": "SK-MEL-5 TRPM1-promoter luciferase reporter, 24 h", "experiment": "reducers of TRPM1 reporter luminescence, concentration series – cell-based, SK-MEL-5, cherry-picked, set 4, MITF inhibitor project, dose response (AID 493102);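 note: actives lower the luciferase signal so the potency reflects inhibition of reporter expression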", "units": {"AC50": "µM"}}
{"smiles": "Cc1cc(C)n(-c2ccc(C(=O)Nc3ccc(C)c(S(=O)(=O)N4CCOCC4)c3)cc2)n1", "AC50": 4.54}
{"smiles": "COc1cc2c(cc1OC)C(C)N(S(=O)(=O)c1cnc(Cl)c(Cl)c1)CC2", "note": "(stereo not given)", "AC50": 12.1}
{"smiles": "O=C(N/N=C/c1ccc([N+](=O)[O-])o1)c1cc2ccccc2o1", "AC50": 5.99}
{"smiles": "N=c1n(CC(=O)c2ccc([N+](=O)[O-])cc2)c2ccccc2n1Cc1ccccc1", "AC50": 4.83}
{"smiles": "CCOc1cc(NC(=O)CCl)c(OCC)cc1NC(=O)CCl", "AC50": 5.5}
{"smiles": "Oc1cc(NCCN2CCOCC2)cc2cccnc12", "AC50": 25.9}
{"smiles": "O=C(N/N=C/c1ccc(F)cc1)c1c(O)c2ccccc2[nH]c1=O", "AC50": 9.64}
{"smiles": "Cc1ccc2nc(NC(=O)CCCC(=O)O)sc2c1", "AC50": 12.1}
{"smiles": "COc1ccccc1NC(=O)c1nc(S(=O)(=O)Cc2ccccc2)ncc1Cl", "AC50": 8.91}
{"smiles": "CN1CCN(c2ccccc2NC(=O)c2ccc([N+](=O)[O-])o2)CC1", "AC50": 4.95}
{"smiles": "CC1(C)Cc2ccccc2C2=NNC(=O)C2=N1", "AC50": 3.62}
{"smiles": "CC(C)(C)c1ccc(-c2noc(CCC(=O)NCc3ccco3)n2)cc1", "AC50": 0.122}
{"smiles": "O=C(O)c1cccc(N/N=C/c2ccc(OC(F)(F)F)cc2)c1", "AC50": 5.95}
{"smiles": "CCN1/C(=C/c2cc[n+](C)cc2)C=Cc2cc(C)ccc21", "AC50": 1.74}
{"smiles": "CC(C)c1ccc(N2C(=O)NC(=O)/C(=C/C=C/c3ccco3)C2=O)cc1", "AC50": 5.89}
{"smiles": "CCOC(=O)c1nnn(-c2ccc([N+](=O)[O-])cc2[N+](=O)[O-])c1C", "AC50": 8.85}
{"smiles": "CC1CN(N=Cc2ccc([N+](=O)[O-])o2)C(=N)O1", "note": "(stereo not given)", "AC50": 24.1}
{"smiles": "O=C(N/N=C\\c1ccc([N+](=O)[O-])s1)c1cncc(Br)c1", "AC50": 4.34}
{"smiles": "N#C/C(=C\\C=C\\c1ccccc1[N+](=O)[O-])C(=O)NCc1ccccc1", "AC50": 14.7}
{"smiles": "CCN(CC)S(=O)(=O)c1cccc(C(=O)N/N=C/c2ccc([N+](=O)[O-])o2)c1", "AC50": 14.1}
{"smiles": "O=C(NC1=NCCS1)C1COc2ccccc2O1", "note": "(stereo not given)", "AC50": 1.7}
{"smiles": "Cc1ccc2nc(C)cc(Nc3ccc([N+](=O)[O-])cc3)c2c1", "AC50": 5.88}
{"smiles": "C#CC(=O)N(c1ccc(OC)cc1OC)C(C(=O)NC1CCCC1)c1cccs1", "note": "(stereo not given)", "AC50": 4.73}
{"smiles": "Cc1ccc(NC(=O)CCC(=O)N/N=C/c2ccc([N+](=O)[O-])o2)cc1C", "AC50": 6.25}
{"smiles": "Cn1nnnc1Sc1ncnc2scc(-c3ccc(F)cc3)c12", "AC50": 8.1}
{"smiles": "O=C(Nc1ccccc1N1CCN(C(=O)c2ccccc2)CC1)c1ccc([N+](=O)[O-])o1", "AC50": 11.4}
{"smiles": "COc1ccc(C(=O)/C=C/C(=O)N(CC(=O)NC2CCCCC2)Cc2ccc(F)cc2)c(O)c1", "AC50": 5.45}
{"smiles": "O=C1NC2c3c(I)sc(I)c3C(=O)C2O1", "note": "(stereo not given)", "AC50": 15.5}
{"smiles": "COc1ccc(N(C(=O)CCl)C(C(=O)NC2CCCCC2)c2cccnc2)cc1", "note": "(stereo not given)", "AC50": 5.87}
{"smiles": "CCNC1=C(Cl)C(=O)c2ccccc2C1=O", "AC50": 3.84}
{"smiles": "O=C(CCl)N1c2ccccc2SCC1c1ccccc1", "note": "(stereo not given)", "AC50": 4.2}
{"smiles": "Cc1ccc(-c2cn3cc(C)ccc3n2)cc1", "AC50": 2.03}
{"smiles": "CCC(=O)N1CCN(c2ccc(Cl)cc2NC(=O)c2ccc([N+](=O)[O-])o2)CC1", "AC50": 12.4}
{"smiles": "CCCN1CCC(NCc2cn(C)nc2-c2ccc(Oc3ccccc3)cc2)CC1", "AC50": 8.35}
{"smiles": "CCCCC[n+]1ccn(C2=C([O-])c3ccccc3C(=O)/C2=N\\S(=O)(=O)c2ccccc2)c1", "AC50": 5.9}
{"smiles": "C=CCn1c(C)cc(C2=NNC(=NCC)SC2)c1C", "AC50": 0.056}
{"smiles": "COC(=O)c1ccc(/C=C(\\C#N)C(=O)NC(C)c2ccccc2)cc1", "note": "(stereo not given)", "AC50": 10.7}
{"smiles": "O=C(Cn1ncc(Cl)c(Cl)c1=O)N1CCOCC1", "AC50": 9.82}
{"smiles": "O=C(NCc1ccccc1)C(=O)Nc1cccc(C(=O)O)c1", "AC50": 4.85}
{"smiles": "CC(=O)c1cccc(NC(=O)/C=C/c2ccc([N+](=O)[O-])s2)c1", "AC50": 7.16}
{"smiles": "CC(C)=NOc1cc(NC(=O)CCl)cc([N+](=O)[O-])c1", "AC50": 6.18}
{"smiles": "Cc1ccc(NC(=O)c2ncn(CCCN[C@H](C)c3cccc4ccccc34)n2)cc1C", "AC50": 22.7}
{"smiles": "CN(C)S(=O)(=O)c1ccc(-c2csc(N/N=C/c3ccc(O)cc3)n2)cc1", "AC50": 4.6}
{"smiles": "O=C(N/N=C/c1ccccn1)c1cc([N+](=O)[O-])cc([N+](=O)[O-])c1", "AC50": 6.53}
{"smiles": "O=C(C#Cc1ccccc1)c1cccc([N+](=O)[O-])c1", "AC50": 3.62}
